# From patent US10065990B2, “Cyclic peptide compound, and preparation method, pharmaceutical composition and use thereof” (HANGZHOU GUANYU BIO-MEDICAL CO., LTD, priority 2013, dated 2018)
# Where two headings read alike, the source gives them in different places.
# Experiments:
# [1] = tested on: KBM5-T315I (human chronic myelogenous leukemia); assay: MTT cancer cell growth inhibition; type: cell-based; settings: MTT, 72 hours incubation, KBM5-T315I cells, read-out: GI50 KBM5-T315I
# Outline: (§1)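 Using a 72 h MTT format, triplicate wells of 1500 cells received compound concentrations from 10^−5 to 10^−10 M. Formazan was read at 570 nm after DMSO dissolution, and GI50 was derived from viability.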
# [2] = tested on: K562 (human leukemia cells); assay: MTT cancer cell growth inhibition; type: cell-based; settings: MTT, 72 hours incubation, K562 cells, read-out: GI50 K562
# Outline: as §1
# [3] = tested on: lncap (prostate cancer cells); assay: MTT cancer cell growth inhibition; type: cell-based; settings: MTT
# Outline: as §1
# [4] = tested on: H1975 (non-small cell lung adenocarcinoma); assay: MTT cancer cell growth inhibition; type: cell-based; settings: MTT, 72 hours incubation, H1975 cells, read-out: GI50 H1975
# Outline: as §1
# [5] = tested on: KBM-5 (human chronic myelogenous leukemia); assay: MTT cancer cell growth inhibition; type: cell-based; settings: MTT, 72 hours incubation, KBM-5 cells, read-out: GI50 KBM-5
# Outline: as §1
# HDAC2 = HDAC2 (Homo sapiens, UniProt Q92769); assay: HDAC biochemical activity measurement (fluorescent substrate deacetylation);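 further: HDAC2 enzyme with an acetyl-lysine fluorescent substrate, then developer added, fluorescence read at excitation 360 nm and emission 460 nm, inhibition measured across several compound concentrations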; settings: 37° C. 30 minutes
# HDAC2, sequence (Q92769 whole entry, species assumed): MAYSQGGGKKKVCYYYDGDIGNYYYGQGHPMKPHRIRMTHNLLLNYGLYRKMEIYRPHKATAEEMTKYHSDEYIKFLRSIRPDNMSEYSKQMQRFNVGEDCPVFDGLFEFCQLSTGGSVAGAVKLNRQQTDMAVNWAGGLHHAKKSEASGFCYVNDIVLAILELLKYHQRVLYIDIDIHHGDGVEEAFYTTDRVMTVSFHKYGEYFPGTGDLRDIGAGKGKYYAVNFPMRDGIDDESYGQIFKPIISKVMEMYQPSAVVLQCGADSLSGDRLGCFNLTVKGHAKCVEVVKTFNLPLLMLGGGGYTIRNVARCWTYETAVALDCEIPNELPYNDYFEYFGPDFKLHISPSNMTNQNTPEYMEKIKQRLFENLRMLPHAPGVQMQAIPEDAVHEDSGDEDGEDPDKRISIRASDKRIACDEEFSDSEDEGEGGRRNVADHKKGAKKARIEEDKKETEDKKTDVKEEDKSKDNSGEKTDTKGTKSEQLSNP
# HDAC7 = target: T1, HDAC7 (Homo sapiens, UniProt Q8WUI4); assay: as above; settings: HDAC7; 37° C. 30 minutes;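 further: fluorogenic deacetylation assay using acetyl-lysine substrate at 20 µM, enzyme and compound incubated 30 min at 37 °C, then developer added, fluorescence read at 360/460 nm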
# T1 sequence (Q8WUI4 1-952): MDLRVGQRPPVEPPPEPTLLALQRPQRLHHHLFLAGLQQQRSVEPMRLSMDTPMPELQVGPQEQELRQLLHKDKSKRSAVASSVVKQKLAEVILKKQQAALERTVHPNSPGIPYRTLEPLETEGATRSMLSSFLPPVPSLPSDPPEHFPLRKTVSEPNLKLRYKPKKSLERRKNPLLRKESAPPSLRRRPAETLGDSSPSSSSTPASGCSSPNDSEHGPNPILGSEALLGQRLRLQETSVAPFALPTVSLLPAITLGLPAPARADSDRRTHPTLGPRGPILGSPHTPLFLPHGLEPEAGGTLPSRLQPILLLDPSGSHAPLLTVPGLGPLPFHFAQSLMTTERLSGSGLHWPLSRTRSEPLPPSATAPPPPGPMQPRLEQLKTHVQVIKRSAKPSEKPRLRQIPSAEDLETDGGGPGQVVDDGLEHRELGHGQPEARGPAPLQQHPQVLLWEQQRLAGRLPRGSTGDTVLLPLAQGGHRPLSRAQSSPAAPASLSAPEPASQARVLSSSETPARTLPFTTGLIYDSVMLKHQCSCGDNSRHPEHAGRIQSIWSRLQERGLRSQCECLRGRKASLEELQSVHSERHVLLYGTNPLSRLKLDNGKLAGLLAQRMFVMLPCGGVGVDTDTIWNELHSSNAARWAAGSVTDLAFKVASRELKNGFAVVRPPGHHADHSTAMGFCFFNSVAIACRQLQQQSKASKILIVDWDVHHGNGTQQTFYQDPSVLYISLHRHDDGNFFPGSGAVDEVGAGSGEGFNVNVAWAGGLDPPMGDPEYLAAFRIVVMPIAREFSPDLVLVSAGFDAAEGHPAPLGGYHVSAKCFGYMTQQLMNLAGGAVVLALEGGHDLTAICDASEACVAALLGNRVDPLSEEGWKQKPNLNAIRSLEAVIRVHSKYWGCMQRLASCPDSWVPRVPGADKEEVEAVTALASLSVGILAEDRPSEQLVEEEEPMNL
# HDAC3 = HDAC3 (Homo sapiens, UniProt O15379); assay: as above;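 further: fluorogenic acetyl-lysine substrate (20 µM) deacetylated by HDAC3, then developer added for 15 min at room temperature, release of fluorophore read at excitation 360 nm, emission 460 nm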
# HDAC3, sequence (O15379 whole entry, species assumed): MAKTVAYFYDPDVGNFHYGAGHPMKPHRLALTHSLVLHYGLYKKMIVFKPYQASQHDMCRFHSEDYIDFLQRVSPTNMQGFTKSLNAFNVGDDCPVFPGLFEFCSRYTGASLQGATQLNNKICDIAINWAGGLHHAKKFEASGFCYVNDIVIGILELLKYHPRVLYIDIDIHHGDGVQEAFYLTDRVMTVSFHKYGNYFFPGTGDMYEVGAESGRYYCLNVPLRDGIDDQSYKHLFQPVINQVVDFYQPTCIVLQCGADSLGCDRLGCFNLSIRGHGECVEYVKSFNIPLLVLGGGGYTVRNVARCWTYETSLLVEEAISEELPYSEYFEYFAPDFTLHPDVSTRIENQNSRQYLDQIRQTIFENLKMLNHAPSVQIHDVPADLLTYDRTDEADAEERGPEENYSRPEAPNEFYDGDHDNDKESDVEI
# HDAC3, sequence (Q9Y618 395-489 partner limits assumed, species assumed): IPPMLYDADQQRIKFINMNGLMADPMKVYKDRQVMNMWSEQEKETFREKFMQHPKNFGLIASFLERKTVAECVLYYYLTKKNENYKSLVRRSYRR
# [6] = Homo sapiens, LNCaP, 72 h, lncap cells, 72 hours incubation, read-out: GI50 lnca
# [7] = Homo sapiens, LNCaP, 72 h, 72 hours incubation, read-out: GI50 lnca
# [8] = read-out: IC50 HDAC3, HDAC3, 37° C. 30 minutes
"GI50 ([1]; Homo sapiens, 72 h) [nM]","GI50 ([2]; Homo sapiens, K562, 72 h) [nM]","GI50 ([3]; Homo sapiens, LNCaP, 72 h, 72 hours, present invention, read-out: GI50 lncap, a) [nM]","GI50 [3, 6] [nM]","GI50 ([4]; Homo sapiens, NCI-H1975, 72 h) [nM]","GI50 ([5]; Homo sapiens, KBM5, 72 h) [nM]",IC50 (HDAC2) [nM],IC50 HDAC7 (HDAC7),IC50 (HDAC3) [nM],"GI50 [3, 7] [nM]",IC50 (HDAC3; [8]) [nM],GI50 [1] [nM],GI50 [2] [nM],"GI50 ([3]; lncap cells, 72 hours incubation, read-out: GI50 lnca) [nM]",GI50 [4] [nM],GI50 [5] [nM],Compound
33,55,170,170,21,56,43,no activity,32,,,,,,,,C/C=C1\NC(=O)c2cccc(n2)CNC(=O)C[C@@H](/C=C/CCSC(=O)CCCCCCC)OC(=O)[C@H](CSCC)NC1=O [Compound 242]
43,42,,30,56,8,93,no activity,21,,,,,,,,C/C=C1\NC(=O)c2nc(ccc2SC)CNC(=O)C[C@@H](/C=C/CCS)OC(=O)[C@H](C)NC1=O [Compound 232]
64,16,,,26,91,27,no activity,37,30,,,,,,,C/C=C1\NC(=O)c2ccc(F)c(n2)CNC(=O)C[C@@H](/C=C/CCSC(=O)CCCCCCC)OC(=O)[C@H](C)NC1=O [Example 62]
34,17,,,34,94,36,no activity,,20,42,,,,,,C/C=C1\NC(=O)c2cc(F)cc(n2)CNC(=O)C[C@@H](/C=C/CCSC(C)=O)OC(=O)[C@H](CCCCNC(=O)OCC2c3ccccc3-c3ccccc32)NC1=O [Compound 76]
35,37,,,37,68,83,no activity,43,30,,,,,,,C/C=C1\NC(=O)c2nccc(n2)CNC(=O)C[C@@H](/C=C/CCSC(C)=O)OC(=O)[C@H](C)NC1=O [Example 24]
26,37,,50,26,23,41,no activity,51,,,,,,,,C/C=C1\NC(=O)c2nc(ccc2SC)CNC(=O)C[C@@H](/C=C/CCSC(=O)CCCCCCC)OC(=O)[C@H](C(C)C)NC1=O [Compound 147]
,,,,,,335,no activity,,,563,63,23,30,96,16,C/C=C1\NC(=O)c2cc(SC)cc(n2)CNC(=O)C[C@@H](/C=C/CCSC(C)=O)OC(=O)[C@H](C(C)C)NC1=O [Compound 224]
47,35,,,37,91,41,no activity,,30,25,,,,,,C/C=C1\NC(=O)c2cc(F)cc(n2)CNC(=O)C[C@@H](/C=C/CCSC(=O)CC)OC(=O)[C@H](C(C)C)NC1=O [Compound 46]
24,26,,,24,53,63,no activity,,580,39,,,,,,C=C1NC(=O)c2cccc(n2)CNC(=O)C[C@@H](/C=C/CCSC(C)=O)OC(=O)[C@H](C(C)C)NC1=O [Compound 19]
